Test results taken from patent EP1120414A1, “DISUBSTITUTED MALEIMIDE COMPOUNDS AND MEDICINAL UTILIZATION THEREOF” (Japan Tobacco Inc., priority 1998, dated 2000).
Read-outs that look alike come from different tables or passages of the source.

How the values were obtained:
PKC β II = target: T1, PKC β II (Homo sapiens, UniProt P05771); assay: PKC enzyme assay (BIOTRAK Protein kinase C enzyme assay system, 32P-ATP phosphorylation of peptide […]); type: biochemical; details: for Ratio α/β: IC50 PKC α / IC50 PKC β II
T1 construct: purchased CALBIOCHEM
Description: The method for determining the PKC inhibitory activity of the compound of the present invention is explained in the following. Inasmuch as PKCβII is present in greater number in intravascular cells than PKCβI, PKCβII was mainly used here to test the enzyme activity.
(§1) As the reagent for enzyme assay, BIOTRAK Protein kinase C enzyme assay system (hereinafter the system, Amersham), and as the PKC enzyme standard product, Protein Kinase C, Human Recombinant (CALBIOCHEM) were purchased and used in the assay. A substrate mixture was prepared by mixing calcium buffer (12 mM calcium acetate, 50 mM Tris/HCl pH 7.5, 0.05% (w/v) sodium azide), Lipid (0.3 mg/ml La-phosphatidyl-L-serine, […] phorbol 12-myristate 13-acetate, 50 mM Tris/HCl pH 7.5, 0.05% (w/v) sodium azide), peptide buffer (900 µM peptide […]), 50 mM Tris/HCl pH 7.5, 0.05% (w/v) sodium azide), DTT buffer (30 mM dithiothreitol, 50 mM Tris/HCl pH 7.5, 0.05% (w/v) sodium azide), and magnesium ATP buffer (1.2 mM ATP, […] pH 7.4, 72 mM magnesium chloride) all attached to the system in a ratio of 1:1:1:1:0.8 and adding [ y -32P]ATP (Amersham, cat. […] The PKC enzyme standard product was diluted with an assay buffer (10 mM Hepes pH 7.4, 0.01% Triton X-100) to a concentration of 400 ng/ml and used as the enzyme solution. The substrate mixture and a test substance (diluted to the final concentration of 1 nM-10 µM with dimethyl sulfoxide (DMSO)) were mixed at a ratio of 20:1. The enzyme solution was added in the amount equivalent to the substrate mixture and mixed, which was followed by incubation at 37°C for 15 minutes. The reaction terminator (300 mM orthophosphoric acid containing carmosine red) attached to the system was added in the amount equivalent to the substrate mixture to end the reaction, and the reaction mixture was spotted on a phosphocellulose paper (Whatman, P-81), washed twice with 75 mM orthophosphoric acid and assayed for radioactivity by BAS2000 (Fuji film).
(§2) The ratio of the radioactivity of the addition of the test substance to the addition of DMSO was determined, and IC50 was calculated from inhibition at each concentration.

PKC α = target: T2, PKC α (Homo sapiens, UniProt P17252); assay: as above; type: biochemical
T2 construct: purchased CALBIOCHEM
Procedure: as §1, §2

[1] = Protein Kinase C, Human Recombinant, test substance 1 nM-10 µM, 37°C, 15 minutes, read-out: Inhibition of PKC activity IC50 PKC β II
[2] = Protein Kinase C, Human Recombinant, test substance 1 nM-10 µM, 37°C, 15 minutes, read-out: Inhibition of PKC activity IC50 PKC α
[3] = read-out: Inhibition of PKC activity IC50 PKC α, Protein Kinase C, Human Recombinant, test substance 1 nM-10 µM, 37°C, 15 minutes
[4] = read-out: Inhibition of PKC activity IC50 PKC β II, Protein Kinase C, Human Recombinant, test substance 1 nM-10 µM, 37°C, 15 minutes

T1 sequence (P05771 other isoform, or with tags, fused parts or gaps): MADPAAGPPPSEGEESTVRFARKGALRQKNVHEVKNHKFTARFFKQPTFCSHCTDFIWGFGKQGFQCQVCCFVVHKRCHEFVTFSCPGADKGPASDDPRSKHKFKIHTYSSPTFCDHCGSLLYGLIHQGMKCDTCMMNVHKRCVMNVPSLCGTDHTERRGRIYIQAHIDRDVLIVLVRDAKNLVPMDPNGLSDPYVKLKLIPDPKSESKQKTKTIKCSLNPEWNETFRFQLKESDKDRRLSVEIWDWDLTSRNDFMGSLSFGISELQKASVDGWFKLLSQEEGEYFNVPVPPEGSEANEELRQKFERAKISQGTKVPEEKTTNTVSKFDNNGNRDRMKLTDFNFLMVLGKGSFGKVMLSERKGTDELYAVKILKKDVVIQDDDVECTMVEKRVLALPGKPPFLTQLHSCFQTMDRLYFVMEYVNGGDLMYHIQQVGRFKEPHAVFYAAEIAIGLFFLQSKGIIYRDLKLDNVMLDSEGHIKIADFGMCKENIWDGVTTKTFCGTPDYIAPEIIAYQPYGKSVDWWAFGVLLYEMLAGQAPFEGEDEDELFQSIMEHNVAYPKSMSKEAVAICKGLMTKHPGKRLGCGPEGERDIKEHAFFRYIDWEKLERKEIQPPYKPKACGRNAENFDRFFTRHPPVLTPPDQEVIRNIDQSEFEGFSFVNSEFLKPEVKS

## Cc1cccc(NC2=C(c3c[nH]c4ccccc34)C(=O)NC2=O)c1 [Example 1-5, 3-(1H-indol-3-yl)-4-[(3-methylphenyl)amino]-1H-pyrrole-2,5-dione]
PKC β II
  Ratio α/β: 33
PKC β II; [1]
  IC50: 151 nM
PKC α; [2]
  IC50: 4920 nM

## O=C1NC(=O)C(c2c3n(c4ccccc24)C[C@@H](CN2CCCC2)C3)=C1Nc1ccccc1 [Example 4-67]
PKC β II
  Ratio α/β: 68
PKC β II; [1]
  IC50: 8 nM
PKC α; [3]
  IC50: 542 nM

## O=C1NC(=O)C(c2c3n(c4ccccc24)C[C@H](CO)C=C3)=C1Nc1ccccc1 [Example 4-43]
PKC β II
  Ratio α/β: 107
PKC β II; [4]
  IC50: 7 nM
PKC α; [3]
  IC50: 749 nM

## CCN(C)C[C@H]1Cc2c(C3=C(Nc4ccccc4)C(=O)NC3=O)c3ccccc3n2C1 [Example 4-61]
PKC β II
  Ratio α/β: 96
PKC β II; [1]
  IC50: 5 nM
PKC α; [3]
  IC50: 481 nM

## NC(=O)C1CCN(CCCn2cc(C3=C(Nc4ccccc4)C(=O)NC3=O)c3ccccc32)CC1 [Example 2-33, 3-[1-{3-(4-carbamoylpiperidino)propyl}-1H-indol-3-yl]-4-(phenylamino)-1H-pyrrole-2,5-dione]
PKC β II
  Ratio α/β: 68
PKC β II; [1]
  IC50: 10 nM
PKC α; [2]
  IC50: 676 nM

## NC(=O)N1CCC(Cn2cc(C3=C(Nc4ccccc4)C(=O)NC3=O)c3ccccc32)CC1 [Example 3-6, 3-[1-{(1-carbamoylpiperidin-4-yl)methyl}-1H-indol-3-yl]-4-(phenylamino)-1H-pyrrole-2,5-dione]
PKC β II
  Ratio α/β: 34
PKC β II; [1]
  IC50: 108 nM
PKC α; [2]
  IC50: 3660 nM

## O=C1NC(=O)C(c2c3n(c4ccccc24)C[C@H](CN2CCOCC2)C3)=C1Nc1ccccc1 [Example 4-59]
PKC β II
  Ratio α/β: 109
PKC β II; [4]
  IC50: 46 nM
PKC α; [3]
  IC50: 4990 nM

## Cc1cccc(NC2=C(c3cn(CCCO)c4ccccc34)C(=O)NC2=O)c1 [Example 2-2, 3-[1-(3-hydroxypropyl)-1H-indol-3-yl]-4-[(3-methylphenyl)amino]-1H-pyrrole-2,5-dione]
PKC β II
  Ratio α/β: 70
PKC β II; [1]
  IC50: 41 nM
PKC α; [2]
  IC50: 2860 nM

## O=C1NC(=O)C(c2cn(CCCn3ccnc3)c3ccccc23)=C1Nc1ccc(Br)cc1 [Example 2-66, 3-[(4-bromophenyl)amino]-4-[1-(3-imidazol-1-ylpropyl)-1H-indol-3-yl]-1H-pyrrole-2,5-dione]
PKC β II
  Ratio α/β: 34
PKC β II; [1]
  IC50: 27 nM
PKC α; [2]
  IC50: 908 nM

## O=C1NC(=O)C(c2cn(CCCCCn3ccnc3)c3ccccc23)=C1Nc1ccccc1 [Example 2-41, 3-[1-(5-imidazol-1-ylpentyl)-1H-indol-3-yl]-4-(phenylamino)-1H-pyrrole-2,5-dione]
PKC β II
  Ratio α/β: 44
PKC β II; [1]
  IC50: 62 nM
PKC α; [2]
  IC50: 2740 nM

## CN1CCC(Cn2cc(C3=C(Nc4ccccc4)C(=O)NC3=O)c3ccccc32)CC1 [Example 3-4, 3-[1-{(1-methylpiperidin-4-yl)methyl}-1H-indol-3-yl]-4-(phenylamino)-1H-pyrrole-2,5-dione]
PKC β II
  Ratio α/β: 29
PKC β II; [1]
  IC50: 18 nM
PKC α; [2]
  IC50: 518 nM

## O=C1NC(=O)C(c2c[nH]c3ccccc23)=C1Nc1cccc(F)c1 [Example 1-12, 3-[(3-fluorophenyl)amino]-4-(1H-indol-3-yl)-1H-pyrrole-2,5-dione]
PKC β II
  Ratio α/β: 29
PKC β II; [1]
  IC50: 249 nM
PKC α; [2]
  IC50: 7160 nM

## COc1ccc(NC2=C(c3c4n(c5ccccc35)C[C@@H](CO)C4)C(=O)NC2=O)cc1 [Example 4-62]
PKC β II
  Ratio α/β: 50
PKC β II; [4]
  IC50: 16 nM
PKC α; [3]
  IC50: 794 nM

## CN1CCN(CCCn2cc(C3=C(Nc4ccccc4)C(=O)NC3=O)c3ccccc32)CC1 [Example 2-26, 3-[1-{3-(4-methylpiperazin-1-yl)propyl}-1H-indol-3-yl]-4-(phenylamino)-1H-pyrrole-2,5-dione]
PKC β II; [1]
  IC50: 23 nM
PKC α; [2]
  IC50: 968 nM

## Cc1cccc(NC2=C(c3cn(CCCN(C)C)c4ccccc34)C(=O)NC2=O)c1 [Example 2-11, 3-[1-(3-dimethylaminopropyl)-1H-indol-3-yl]-4-[(3-methylphenyl)amino]-1H-pyrrole-2,5-dione]
PKC β II
  Ratio α/β: 49
PKC β II; [1]
  IC50: 15 nM
PKC α; [2]
  IC50: 727 nM

## CN(C)CCN(C)CCCn1cc(C2=C(Nc3ccccc3)C(=O)NC2=O)c2ccccc21 [Example 2-14, 3-[1-{3-[N-(2-dimethylaminoethyl)-N-methylamino)propyl}-1H-indol-3-yl]-4-(phenylamino)-1H-pyrrole-2,5-dione]
PKC β II
  Ratio α/β: 70
PKC β II; [1]
  IC50: 40 nM
PKC α; [2]
  IC50: 2790 nM

## O=C1NC(=O)C(c2c3n(c4ccccc24)CC(CN2CCSCC2)C3)=C1Nc1ccccc1 (stereo not shown) [Example 4-28]
PKC β II
  Ratio α/β: 134
PKC β II; [4]
  IC50: 25 nM
PKC α; [3]
  IC50: 3360 nM

## CCN(C)CCCn1c(C)c(C2=C(Nc3ccccc3)C(=O)NC2=O)c2ccccc21 [Example 2-56, 3-[1-{3-(ethylmethylamino)propyl}-2-methyl-1H-indol-3-yl]-4-(phenylamino)-1H-pyrrole-2,5-dione]
PKC β II
  Ratio α/β: 65
PKC β II; [1]
  IC50: 84 nM
PKC α; [2]
  IC50: 5490 nM

## O=C1NC(=O)C(c2cn(CCCS(=O)(=O)c3ccccc3)c3ccccc23)=C1Nc1ccccc1 [Example 2-35, 3-[1-{3-(phenylsulfonyl)propyl}-1H-indol-3-yl]-4-(phenylamino)-1H-pyrrole-2,5-dione]
PKC β II
  Ratio α/β: 41
PKC β II; [1]
  IC50: 95 nM
PKC α; [2]
  IC50: 3890 nM

## O=C1NC(=O)C(c2c3n(c4ccccc24)CC[C@H](CN2CCSCC2)C3)=C1Nc1ccccc1 [Example 4-30]
PKC β II
  Ratio α/β: 131
PKC β II; [4]
  IC50: 5 nM
PKC α; [3]
  IC50: 654 nM

## CN(C)C[C@H]1Cc2c(C3=C(Nc4ccccc4)C(=O)NC3=O)c3ccccc3n2C1 [Example 4-64]
PKC β II
  Ratio α/β: 37
PKC β II; [1]
  IC50: 4 nM
PKC α; [3]
  IC50: 148 nM

## O=C1NC(=O)C(c2cn(CCCN3CCC(N4CCCC4)CC3)c3ccccc23)=C1Nc1ccccc1 [Example 2-49, 3-[1-(3-(4-pyrrolidinylpiperidino)propyl}-1H-indol-3-yl]-4-(phenylamino)-1H-pyrrole-2,5-dione]
PKC β II
  IC50: 8 nM
PKC α
  IC50: 723 nM

## O=C1NC(=O)C(c2cn(CCCN3CCC(Cc4ccccc4)CC3)c3ccccc23)=C1Nc1ccccc1 [Example 2-48, 3-[1-{3-(4-benzylpiperidino)propyl}-1H-indol-3-yl]-4-(phenylamino)-1H-pyrrole-2,5-dione]
PKC β II
  Ratio α/β: 77
PKC β II; [1]
  IC50: 18 nM
PKC α; [2]
  IC50: 1390 nM

## O=C1NC(=O)C(c2cn(CCCn3ccnc3)c3ccccc23)=C1Nc1ccc(Cl)cc1 [Example 2-64, 3-[(4-chlorophenyl)amino]-4-[1-(3-imidazol-1-ylpropyl)-1H-indol-3-yl]-1H-pyrrole-2,5-dione]
PKC β II
  Ratio α/β: 37
PKC β II; [1]
  IC50: 20 nM
PKC α; [2]
  IC50: 739 nM

## O=C1NC(=O)C(c2cn(CCCN3CCOCC3)c3ccccc23)=C1Nc1ccccc1 [Example 2-19, 3-[1-(3-morpholinopropyl)-1H-indol-3-yl]-4-(phenylamino)-1H-pyrrole-2,5-dione]
PKC β II
  Ratio α/β: 72
PKC β II; [1]
  IC50: 17 nM
PKC α; [2]
  IC50: 1230 nM

## CCN(CCCn1cc(C2=C(Nc3ccccc3)C(=O)NC2=O)c2ccccc21)Cc1ccccc1 [Example 2-17, 3-[1-{3-(N-benzyl-N-ethylamino)propyl}-1H-indol-3-yl)-4-(phenylamino)-1H-pyrrole-2,5-dione]
PKC β II
  Ratio α/β: 45
PKC β II; [1]
  IC50: 103 nM
PKC α; [2]
  IC50: 4630 nM

## CN(C)CCCn1cc(C2=C(Nc3ccccc3)C(=O)NC2=O)c2ccccc21 [Example 2-8, 3-[1-(3-dimethylaminopropyl)-1H-indol-3-yl]-4-(phenylamino)-1H-pyrrole-2,5-dione]
PKC β II
  Ratio α/β: 38
PKC β II; [1]
  IC50: 12 nM
PKC α; [2]
  IC50: 460 nM

## CC(C)(C)OC(=O)C1CCN(CCCn2cc(C3=C(Nc4ccccc4)C(=O)NC3=O)c3ccccc32)CC1 [Example 2-51, 3-[1-{3-[4-(tert-butoxycarbonyl)piperidino]propyl}-1H-indol-3-yl]-4-(phenylamino)-1H-pyrrole-2,5-dione]
PKC β II
  Ratio α/β: 38
PKC β II; [1]
  IC50: 27 nM
PKC α; [2]
  IC50: 1020 nM

## O=C1NC(=O)C(c2c3n(c4ccccc24)C[C@@H](CO)C3)=C1Nc1ccccc1 [Example 4-60]
PKC β II
  Ratio α/β: 115
PKC β II; [1]
  IC50: 4 nM
PKC α; [3]
  IC50: 458 nM
